Results reported in patent US20200231638A1, “STABILIZED ANTI-MICROBIAL PEPTIDES” (priority 2015, published 2020).
Bridge positions count the residues as written; N and C are the ends. Square brackets hold non-standard residues; d marks the D form. Peptide text beside a SMILES is read from it. R8 = C=CCCCCCC[C@@](C)(N)C(=O)O; S5 = C=CCCC[C@](C)(N)C(=O)O; Nle = CCCC[C@H](N)C(=O)O

Experiments:
[1] = system: S. aureus; type: cell-based, Staphylococcus aureus
Procedure, shortened: (§1)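 MIC read as the minimum peptide concentration showing no visible growth after 20-24 hours at 37° C. Cultures were grown overnight, then regrown several hours before testing. Medium was MHB refined by anion exchange to strip polyanions; final inoculum 5×10^5 CFU/ml.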

[2] = system: human red blood cells; type: cell-based; conditions: red cells of human, 1 h, 25
Procedure, shortened: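 Washed human RBCs as 1% (v/v) suspension in phosphate-buffered saline incubated 1 h at 37° C with serially diluted peptides. Hemoglobin release in supernatant measured spectrophotometrically (570 nm), % hemolysis relative to untreated and 1% Triton-X100 controls; MHC defined as concentration giving less than 1% release.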

[3] = system: P. aeruginosa; type: cell-based, Pseudomonas aeruginosa
Procedure, shortened: as §1

[4] = system: E. coli; type: cell-based, Escherichia coli
Procedure, shortened: as §1

[5] = system: B. cereus; type: cell-based, Bacillus cereus
Procedure, shortened: as §1

Row | SMILES | MIC S. aureus [1] [µg/mL] | % Hemolysis at 25 μg/ml [2] [%] | MIC P. aeruginosa [3] [µg/mL] | MIC E. coli [4] [µg/mL] | MIC B. cereus [5] [µg/mL]
1 | CCCC[C@H](NC(=O)[C@]1(C)CCCC=CCCC[C@](C)(NC(=O)[C@H](C)NC(=O)[C@H](CCCCN)NC(=O)CNC(=O)[C@H](Cc2ccccc2)NC(=O)[C@H](CCCCN)NC(=O)[C@H](CCCCN)NC(=O)[C@H](C)NC(=O)[C@H](CO)NC(=O)[C@H](Cc2c[nH]cn2)NC(=O)[C@H](CC(C)C)NC(=O)[C@H](Cc2ccccc2)NC(=O)[C@H](CCCCN)NC(=O)CNC(=O)[C@@H](NC(=O)CN)[C@@H](C)CC)C(=O)N[C@@H](CCCCN)C(=O)NCC(=O)N[C@@H](CCC(=O)O)C(=O)N1)C(=O)N[C@@H](CC(N)=O)C(=O)N[C@@H](CO)C(N)=O [Mag(i + 4)15(V17K), GIGKFLHSAKKFGKAXKGEXBNS] (H-GIGKFLHSAKKFGKA[S5]KGE[S5][Nle]NS-NH2; staple 16-20) | >50 | 2.2 | 12.5 | 3.1 | 50
2 | CCCC[C@H](NC(=O)[C@]1(C)CCCC=CCCC[C@](C)(NC(=O)[C@H](C)NC(=O)[C@H](CCCCN)NC(=O)CNC(=O)[C@H](Cc2ccccc2)NC(=O)[C@H](CCCCN)NC(=O)[C@H](CCCCN)NC(=O)[C@H](C)NC(=O)[C@H](CO)NC(=O)[C@H](Cc2c[nH]cn2)NC(=O)[C@H](CC(C)C)NC(=O)[C@H](Cc2ccccc2)NC(=O)[C@H](CCCCN)NC(=O)CNC(=O)[C@@H](NC(=O)CN)[C@@H](C)CC)C(=O)N[C@@H](C(C)C)C(=O)NCC(=O)N[C@@H](CCC(=O)O)C(=O)N1)C(=O)N[C@@H](CC(N)=O)C(=O)N[C@@H](CO)C(N)=O [Mag(i + 4)15] (H-GIGKFLHSAKKFGKA[S5]VGE[S5][Nle]NS-NH2; staple 16-20) | 12.5 | 11.9 | 6.2 | 1.6 | 6.2
3 | CC[C@H](C)[C@H](NC(=O)CN)C(=O)NCC(=O)N[C@@H](CCCCN)C(=O)N[C@@H](Cc1ccccc1)C(=O)N[C@@H](CC(C)C)C(=O)N[C@@H](Cc1c[nH]cn1)C(=O)N[C@@H](CO)C(=O)N[C@@H](C)C(=O)N[C@@H](CCCCN)C(=O)N[C@@H](CCCCN)C(=O)N[C@@H](Cc1ccccc1)C(=O)NCC(=O)N[C@@H](CCCCN)C(=O)N[C@@H](C)C(=O)N[C@@H](Cc1ccccc1)C(=O)N[C@@]1(C)CCCC=CCCC[C@@](C)(C(=O)N[C@@H](CC(N)=O)C(=O)N[C@@H](CO)C(N)=O)NC(=O)[C@H]([C@@H](C)CC)NC(=O)[C@H](CCC(=O)O)NC(=O)CNC1=O [Mag(i + 4)16, GIGKFLHSAKKFGKAFXGEIXNS] (H-GIGKFLHSAKKFGKAF[S5]GEI[S5]NS-NH2; staple 17-21) | 50 | 7.8 | 6.2 | 3.1 | 12.5
4 | CCCC[C@@H]1NC(=O)[C@H]([C@@H](C)CC)NC(=O)[C@H](CCC(=O)O)NC(=O)[C@@](C)(NC(=O)[C@@H](NC(=O)[C@H](Cc2ccccc2)NC(=O)[C@H](C)NC(=O)[C@H](CCCCN)NC(=O)CNC(=O)[C@H](Cc2ccccc2)NC(=O)[C@H](CCCCN)NC(=O)[C@H](CCCCN)NC(=O)[C@H](C)NC(=O)[C@H](CO)NC(=O)[C@H](Cc2c[nH]cn2)NC(=O)[C@H](CC(C)C)NC(=O)[C@H](Cc2ccccc2)NC(=O)[C@H](CCCCN)NC(=O)CNC(=O)[C@@H](NC(=O)CN)[C@@H](C)CC)C(C)C)CCCC=CCCC[C@@](C)(C(=O)N[C@@H](CO)C(N)=O)NC1=O [Mag(i + 4)17] (H-GIGKFLHSAKKFGKAFV[S5]EI[Nle][S5]S-NH2; staple 18-22) | 3.1 | 56.0 | 6.2 | 1.6 | 1.6
5 | CCCC[C@@H]1NC(=O)[C@H]([C@@H](C)CC)NC(=O)[C@@](C)(NC(=O)CNC(=O)[C@@H](NC(=O)[C@H](Cc2ccccc2)NC(=O)[C@H](C)NC(=O)[C@H](CCCCN)NC(=O)CNC(=O)[C@H](Cc2ccccc2)NC(=O)[C@H](CCCCN)NC(=O)[C@H](CCCCN)NC(=O)[C@H](C)NC(=O)[C@H](CO)NC(=O)[C@H](Cc2c[nH]cn2)NC(=O)[C@H](CC(C)C)NC(=O)[C@H](Cc2ccccc2)NC(=O)[C@H](CCCCN)NC(=O)CNC(=O)[C@@H](NC(=O)CN)[C@@H](C)CC)C(C)C)CCCC=CCCC[C@@](C)(C(N)=O)NC(=O)[C@H](CC(N)=O)NC1=O [Mag(i + 4)18, GIGKFLHSAKKFGKAFVGXIBNX] (H-GIGKFLHSAKKFGKAFVG[S5]I[Nle]N[S5]-NH2; staple 19-23) | 1.6 | 96.5 | 3.1 | 1.6 | 3.1
6 | CCCC[C@H](NC(=O)[C@@H](NC(=O)[C@H](CCC(=O)O)NC(=O)CNC(=O)[C@@H](NC(=O)[C@H](Cc1ccccc1)NC(=O)[C@H](C)NC(=O)[C@H](CCCCN)NC(=O)CNC(=O)[C@H](Cc1ccccc1)NC(=O)[C@H](CCCCN)NC(=O)[C@H](CCCCN)NC(=O)[C@]1(C)CCCC=CCCCCCC[C@@](C)(NC(=O)CN)C(=O)NCC(=O)N[C@@H](CCCCN)C(=O)N[C@@H](Cc2ccccc2)C(=O)N[C@@H](CC(C)C)C(=O)N[C@@H](Cc2c[nH]cn2)C(=O)N[C@@H](CO)C(=O)N1)C(C)C)[C@@H](C)CC)C(=O)N[C@@H](CC(N)=O)C(=O)N[C@@H](CO)C(N)=O [Mag(i + 7)1] (H-G[R8]GKFLHS[S5]KKFGKAFVGEI[Nle]NS-NH2; staple 2-9 (inferred); N-terminus and C-terminus assumed) | 12.5 | 49.9 | 3.1 | 3.1 | 3.1
7 | CCCC[C@H](NC(=O)[C@@H](NC(=O)[C@H](CCC(=O)O)NC(=O)CNC(=O)[C@@H](NC(=O)[C@H](Cc1ccccc1)NC(=O)[C@H](C)NC(=O)[C@H](CCCCN)NC(=O)CNC(=O)[C@H](Cc1ccccc1)NC(=O)[C@H](CCCCN)NC(=O)[C@]1(C)CCCC=CCCCCCC[C@@](C)(NC(=O)[C@@H](NC(=O)CN)[C@@H](C)CC)C(=O)N[C@@H](CCCCN)C(=O)N[C@@H](Cc2ccccc2)C(=O)N[C@@H](CC(C)C)C(=O)N[C@@H](Cc2c[nH]cn2)C(=O)N[C@@H](CO)C(=O)N[C@@H](C)C(=O)N1)C(C)C)[C@@H](C)CC)C(=O)N[C@@H](CC(N)=O)C(=O)N[C@@H](CO)C(N)=O [Mag(i + 7)2] (H-GI[R8]KFLHSA[S5]KFGKAFVGEI[Nle]NS-NH2; staple 3-10 (inferred); N-terminus and C-terminus assumed) | 12.5 | 69.3 | 12.5 | 3.1 | 6.2
8 | CCCC[C@H](NC(=O)[C@@H](NC(=O)[C@H](CCC(=O)O)NC(=O)CNC(=O)[C@@H](NC(=O)[C@H](Cc1ccccc1)NC(=O)[C@H](C)NC(=O)[C@H](CCCCN)NC(=O)CNC(=O)[C@H](Cc1ccccc1)NC(=O)[C@]1(C)CCCC=CCCCCCC[C@@](C)(NC(=O)CNC(=O)[C@@H](NC(=O)CN)[C@@H](C)CC)C(=O)N[C@@H](Cc2ccccc2)C(=O)N[C@@H](CC(C)C)C(=O)N[C@@H](Cc2c[nH]cn2)C(=O)N[C@@H](CO)C(=O)N[C@@H](C)C(=O)N[C@@H](CCCCN)C(=O)N1)C(C)C)[C@@H](C)CC)C(=O)N[C@@H](CC(N)=O)C(=O)N[C@@H](CO)C(N)=O [Mag(i + 7)3] (H-GIG[R8]FLHSAK[S5]FGKAFVGEI[Nle]NS-NH2; staple 4-11 (inferred); N-terminus and C-terminus assumed) | 12.5 | 52.5 | 25 | 6.2 | 12.5
9 | CCCC[C@H](NC(=O)[C@@H](NC(=O)[C@H](CCC(=O)O)NC(=O)CNC(=O)[C@@H](NC(=O)[C@H](Cc1ccccc1)NC(=O)[C@H](C)NC(=O)[C@H](CCCCN)NC(=O)CNC(=O)[C@]1(C)CCCC=CCCCCCC[C@@](C)(NC(=O)[C@H](CCCCN)NC(=O)CNC(=O)[C@@H](NC(=O)CN)[C@@H](C)CC)C(=O)N[C@@H](CC(C)C)C(=O)N[C@@H](Cc2c[nH]cn2)C(=O)N[C@@H](CO)C(=O)N[C@@H](C)C(=O)N[C@@H](CCCCN)C(=O)N[C@@H](CCCCN)C(=O)N1)C(C)C)[C@@H](C)CC)C(=O)N[C@@H](CC(N)=O)C(=O)N[C@@H](CO)C(N)=O [Mag(i + 7)4] (H-GIGK[R8]LHSAKK[S5]GKAFVGEI[Nle]NS-NH2; staple 5-12 (inferred); N-terminus and C-terminus assumed) | 25 | 42.6 | 3.1 | 1.6 | 6.2
